Data reported in US20040057913A1, “Antioxidant and skin preparations for external use” (priority 2000, published 2004).

System: ICR male mouse
Assay: Mouse ear swelling suppressing activity (TPA-induced edema)
Format: in vivo
Conditions: applied to the ear 30 minutes before the TPA application; measured 4 hours after TPA; Mozuku extract 0.25 or 0.5 mg/ear, indomethacin 0.2 mg/ear (FIG. 4)
Procedure: Mouse ear swelling suppressing activity of the Mozuku extract was examined as follows. The thickness of the ear of an ICR male mouse (age: 5 weeks) was measured using a thickness gauge (Digimatic Indicator 543, manufactured by Mitsutoyo Co., Ltd.). The Mozuku extract was applied to the ear in the amount of 0.25 mg/ear or 0.5 mg/ear. As a comparative test, an indomethacin solution, prepared by dissolving indomethacin at a concentration of 1.0% in 70% acetone, was applied to the mouse ear in the amount of 0.2 mg/ear. 30 minutes after the application, 10 μl of a […] solution of 12-O-tetradecanoylphorbol-13-acetate (TPA) in 70% acetone was applied to the in and out sides of the mouse ear to induce a skin reaction. The thickness of the ear skin was measured after 4 hours at which the value of the swelling became the maximum. The ratio of the measured thickness to the thickness of the ear skin before the edema induction was calculated as the ratio of edema. The thickness of both the right and left ear skins was measured and the values were averaged to determine the ear skin thickness of the mouse.

With `COc1ccc2c(c1)c(CC(=O)O)c(C)n2C(=O)c1ccc(Cl)cc1` [indomethacin] as the compound, how does the “edema suppressing effect (ratio of edema, ear skin thickness)” value read?
Its value is “remarkable edema suppressing effect”.
